Assay results published in patent publication US20240228987A1, “HEXOKINASE-DERIVED PEPTIDES AND THERAPEUTICAL USES THEREOF” (INSERM (INSTITUT NATIONAL DE LA SANTÉ ET DE LA RECHERCHE …, priority 2021, published 2024).
Where a SMILES comes first, the peptide text is derived from it. [ ]: non-standard residue; d: D form. Nle = CCCC[C@H](N)C(=O)O

Columns and labels:
VDAC [1] = target: T1, VDAC (Homo sapiens, UniProt P21796); test: time-lapse recording of mitochondrial calcium probe mito-GCaMP2 in HEK293 cells treated with MJ and HK1 N-terminal peptides (FIG. 3); type: cell-based; conditions: peptides at 5 microMolar, MJ 6 mM
T1 construct: HEK-293 cells, expressing VDAC and HK; endogenous in cells; host or cells: HEK-293 (ATCC), transfected only with the Ca2+ probes mitoGCaMP2 / GCaMP2
T1 sequence (P21796 2-283): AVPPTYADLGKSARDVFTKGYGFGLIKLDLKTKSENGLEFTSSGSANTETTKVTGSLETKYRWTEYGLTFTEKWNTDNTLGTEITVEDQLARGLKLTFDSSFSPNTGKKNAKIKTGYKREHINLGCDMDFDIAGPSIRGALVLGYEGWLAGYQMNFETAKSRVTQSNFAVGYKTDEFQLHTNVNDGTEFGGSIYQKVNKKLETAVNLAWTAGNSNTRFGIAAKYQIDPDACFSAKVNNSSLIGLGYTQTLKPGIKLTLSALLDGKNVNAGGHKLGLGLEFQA
Method: FIG. 3: Time-lapse recording of fluorescence intensity of the mitochondrial calcium probe in HEK293 cells treated with Methyl Jasmonate (MJ, 6 milliMolar) and Nterminal peptide of wt HK1 (HK1-Nt peptide) or Nterminal peptide of mutated HK1 (HKmut-Nt peptide). HEK 293 cells were transfected with a plasmid expressing mito-GCaMP2. 48 hours later cells were imaged using a Zeiss Axio-observer designed for live-imaging and treated with MJ (6 mM) and/or peptides at 5 microMolar. Peptide sequences: wt HK1 peptide Ac-[…]-NH2 (SEQ ID NO:90), CMT4G-mutated HK1 peptide Ac-[…]-NH2 (SEQ ID NO:91) and Control peptide Ac-[…]-NH2 (SEQ ID NO:92).

VDAC [2] = target: T1, VDAC; test: in-cellulo screening assay: HEK-293 cells transfected with mitoGCaMP2, MJ-induced mitochondrial Ca2+ release through VDAC; type: cell-based
Method: The activity of the designed compounds was assessed on HEK-293 cells transfected with mitoGCaMP2. 40,000 cells per well were seeded in 96-well-microplates coated with Poly-D-Lysine (reference 655946, Greiner Bio-One, France) in 200 μl of DMEM supplemented with 10% FBS and 1% PS. 24 h after seeding, cells were transfected with 50 ng of mitoGCaMP2 plasmid per well using jet-PRIME reagent (Polyplus-transfection S.A, France) according to the manufacturer's recommendations. 48 h after transfection, a first measure of fluorescence was performed using the microplate reader CLARIOstar® (BMG Labtech, France). This measurement represented the basal level of Ca2+ into the mitochondria upon transfection. After a wash with 100 μl of PBS, cells were incubated with a mixture of pre-heated (37° C.) MJ at a final concentration of 6 mM and compounds at the indicated final concentrations in PBS containing 0.1% DMSO and 5% EtOH. After 35 min in a cell incubator, a second measure of fluorescence was performed using the microplate reader CLARIOstar®. This measure represented the level of mitochondrial Ca2+ according to the peptide activity. Compounds were tested in triplicates per microplates and in three or five independent experiments for each peptide. For dose effect curves, compounds were tested in triplicates per microplates and in three independent experiments. Results are expressed as the ratio between the second and first measures and normalized to the conditions without compounds containing only PBS with 0.1% DMSO and 5% EtOH. Results are expressed as the means±SD in histogram plots and dose response curves using GraphPad Prism software (version 8.0.1).
The biological screening of the peptide is based on the ability of methyl jasmonate (MJ) to binds and detaches HK-1 from mitochondrial VDAC in a time and dose dependent manner.^16,20 For this purpose, we developed an in-cellulo screening assay in which HEK-293 cells, expressing VDAC and HK,25 were transfected with GCaMP2, a cytoplasmic Ca2+-sensing probe, or with mitoGCaMP2, the same probe addressed to mitochondrial matrix. […] MJ that removes HK from VDAC was used to induce a Ca2+ release outside mitochondria measured through a drop in mitoGCaMP2 fluorescence and an increase in GCaMP2 fluorescence in cells.

HEK293 cells = test: Rhod-2 mitochondrial calcium imaging in HEK293 cells, methyl jasmonate (Example 2); type: cell-based; conditions: methyl jasmonate 6 mM, 40 minutes; 5z peptide 5 μM or AAV9 infection
Method: (§1) FIG. 12: AAV9 represents an efficient way to sustain anti-demyelinating peptide expression in target cells. HEK293 cells were infected with a control AAV9 or AAV9-HK peptide or not infected. Two days later cells were incubated with a fluorescent dye Rhod-2 that fluoresces with calcium in mitochondria. 15 minutes later infected cells were incubated with methyl jasmonate (6 mM) and non-infected cells were incubated with methyl jasmonate (6 mM)+5z peptide (5 μM) for 40 minutes. Pictures were taken every 5 minutes imaging Rhod-2 dye.
as §1, with “We produced an” for “FIG. 12:”, “virus expressing HK” for “represents an efficient way to sustain anti-demyelinating”, “5z (AAV9-HK peptide).” for “expression in target cells.”

[3] = cited from earlier work
VDAC [4] = target: T1, VDAC; test: live imaging of HEK-293 cells transfected with mitoGCaMP2 or GCaMP2, MJ treatment; type: cell-based; conditions: peptide at 33 μM, MJ 6 mM, 30 min
Method: (§2) FIG. 5. Time-lapse quantification of mitoGCaMP2 (A) and GCaMP2 (B) fluorescence levels within mitochondria and within the cytosol respectively. Quantifications of fluorescence levels of HEK-293 cells transfected with mitoGCaMP2 (A) and GCaMP2 (B) probes. Control (circle) represents the fluorescence level in mitochondria when treating the cells with the diluents 0.1 DMSO and 5% EtOH used for MJ and compound solubilization. MJ was tested at 6 mM and compound 1a at 33 μM. Statistical analysis using two-way ANOVA followed by Tukeys's multiple comparison tests (N=3 independent experiments). Results are expressed as means±SEM. **p<0.01, ****p<0.0001, ns. non significant. A. U. arbitrary unit
(§3) Live imaging experiments were performed on HEK-293 cells transfected with either the mitoGCaMP2 or the GCaMP2 plasmids. 500,000 cells per well were seeded in 6-well microplate (NUNC, reference 153066, Thermo Fisher Scientific, France) in 1 ml of DMEM supplemented with 10% FBS and 1% PS. 48 h after seeding, cells were transfected with 2 μg of mitoGCaMP2 or GCaMP2 plasmids using jet-PRIME reagent according to the manufacturer's protocol. 48h after transfection, the microplates were placed under a videomicroscope equipped with a humidified chamber at 37° C. and with 5% CO2. Next, 6 mM of pre-heated MJ (37° C.) was added to the wells with or without the peptide 1a at 33 μM in 1 ml of DMEM without red phenol supplemented with 10% FBS and 1% PS, and containing 0.1% DMSO and 5% EtOH. In parallel, wells containing only 1 ml of DMEM without red phenol and with 10% FBS, 1% PS, 0.1% DMSO and 5% EtOH served as control condition. Live imaging acquisition was triggered when adding MJ with or without the peptide 1a. For the control condition, image acquisition was triggered after addition of 1 ml of DMEM without red phenol supplemented with 10% FBS and 1% PS, containing 0.1% DMSO and 5% EtOH. […] Overall, 5 ROIs per condition were analyzed using Zen software (Zen 2.3 lite, Zeiss, France) and ImageJ software (version 1.52o, NIH, USA). Results are expressed as the mean±SEM using GraphPad Prism software (version 8.0.1). […]

VDAC [5] = test: as above; type: cell-based; conditions: MJ 6 mM
Method: as §2, §3

Schwann cells = conditions: cited from earlier work

Ac-MGQICQRESATAAEKGRKKRRQRRRPPQ-NH2 [peptide derived from the mutant HK1]
mitochondrial calcium release following MJ treatment (VDAC [1]): no effect

AQWWAYYYTEWK [5z, tested peptide also contains Tat]
activity / affinity for VDAC on the screening assay (mitoGCaMP2 fluorescence) (VDAC [2]; compounds at 3 μM, MJ 6 mM, compared with 3c, 4d or 5x): more significant | Rhod-2 fluorescence in mitochondria (HEK293 cells): no decrease occurred

GRKKRRQRRRPQ [Tat]
half-life in serum [3]: less than 6 min

CCCC[C@H](NC(C)=O)C(=O)N[C@H](C(=O)N[C@@H](C)C(=O)N[C@@H](C)C(=O)N[C@@H](CCC(N)=O)C(=O)N[C@@H](CC(C)C)C(=O)N[C@@H](CC(C)C)C(=O)N[C@@H](C)C(=O)N[C@@H](Cc1ccc(O)cc1)C(=O)N[C@@H](Cc1ccc(O)cc1)C(=O)N[C@@H](Cc1ccccc1)C(=O)N[C@H](C(=O)N[C@@H](CCC(=O)O)C(=O)N[C@@H](CC(C)C)C(=O)N[C@@H](CCCCN)C(=O)NCC(=O)N[C@@H](CCCNC(=N)N)C(=O)N[C@@H](CCCCN)C(=O)N[C@@H](CCCCN)C(=O)N[C@@H](CCCNC(=N)N)C(=O)N[C@@H](CCCNC(=N)N)C(=O)N[C@@H](CCC(N)=O)C(=O)N[C@@H](CCCNC(=N)N)C(=O)N[C@@H](CCCNC(=N)N)C(=O)N[C@@H](CCCNC(=N)N)C(=O)N1CCC[C@H]1C(=O)N1CCC[C@H]1C(=O)N[C@@H](CCC(N)=O)C(N)=O)[C@@H](C)O)[C@@H](C)CC [1a] (Ac-[Nle]IAAQLLAYYFTELKGRKKRRQRRRPPQ-NH2)
fluorescence change induced by MJ treatment (mitoGCaMP2 and GCaMP2) (VDAC [4]): blocked | IC50 (VDAC [2]; HEK-293 mitoGCaMP2, MJ 6 mM, 35 min, dose response, read-out: IC50 on mitochondrial Ca2+ release through VDAC): 15.6 ± 2 µM

CC/C=C\CC1C(=O)CCC1CC(=O)OC (centres unmarked) [MJ, Methyl jasmonate]
mitoGCaMP2 fluorescence (mitochondrial Ca2+) (VDAC [5]; at least 30 min): significant decrease | GCaMP2 fluorescence (cytoplasmic Ca2+) (VDAC [5]; same timeframe): increased significantly | demyelination (Schwann cells): spontaneous demyelination | Rhod-2 fluorescence in mitochondria (HEK293 cells): decrease

Ac-MIAAQLLAYYFTELKGRKKRRQRRRPPQ-NH2
mitochondrial calcium release following MJ treatment (VDAC [1]): able to prevent mitochondrial calcium release
